# pIC50: −log10 of the molar value. Where two headings read alike, the source gives them in different places.
# What was measured:
# Assay type in all cases: cell-based
# [1] = tested on: A. flavus ATCC204304; assay: Antifungal activity test, MIC by broth microdilution (CLSI M38-A2); details: A. flavus ATCC204304, broth microdilution, 35° C., 24-48 hours, 100% inhibition
# Description: (§1) The Minimum Inhibitory Concentration (MIC) values of the present compound against yeast and filamentous fungi were determined by broth microdilution assay according to the Clinical Laboratory Standards Institute (CLSI) guidelines outlined in documents M27-A3 and M38-A2. The medium used in the assay consisted of RPMI1640 (with glutamine, without bicarbonate) with 2% glucose and 0.165 mol/L morpholinepropanesulfonic acid (MOPS) with pH adjusted to 7.0 using 1 mol/L sodium hydroxide. The present compound was dissolved in dimethyl sulfoxide (DMSO). A series of two-fold dilutions were prepared in DMSO, and then 2 μL of the diluted compound was added to each well in 96-well sterile plates. Each inoculum was prepared by diluting a suspension of Candida spp. or a conidia suspension of Aspergillus spp. suspended in sterile saline solution, and then 200 μL was added to each well to a predetermined concentration using RPMI/MOPS (final concentration for each solution: approximately 1×10^3 cells/mL and approximately 1×10^4 CFU/mL). Plates of Candida spp. and Aspergillus spp. were incubated at 35° C. for 24-48 hours. The MIC was defined as the lowest concentration giving 100% inhibition compared to the growth control.
# [2] = tested on: A. fumigatus ATCC204305; assay: as above; details: A. fumigatus ATCC204305, broth microdilution, 35° C., 24-48 hours, 100% inhibition
# Description: as §1
# [3] = tested on: C. albicans ATCC90028; assay: Antifungal activity test, MIC by broth microdilution (CLSI M27-A3); details: C. albicans ATCC90028, broth microdilution, 35° C., 24-48 hours, 100% inhibition
# Description: as §1
# [4] = tested on: red blood cells (5% RBC suspension); assay: Test Example 2-1: in vitro hemolytic activity test (upper limit 50, 80, 100 or 200 μmol/L); details: read-out: hemolysis IC50
# Description: Nephrotoxic potentials of the compounds of the present invention except the compounds whose X is —N(R^F)—CO—X^1 and X^1 is the group represented by formula (III) and T is —N(R^a5)— were investigated by in vitro hemolytic activity test under the condition, in that, the upper limit was 50 μmol/L, 80 μmol/L, 100 μmol/L, or 200 μmol/L as the required concentration to 50% of hemolysis (IC50).
# Defibrinated sterile blood was centrifuged at 700×g for 3 minutes and, and the supernatant was removed for 100% of red blood cells. After the cleaning with physiological saline, the washed blood cells was suspended in the medium (Earle's balanced salt sodium, bicarbonate, 0.1 g/L L-glutamine without phenol red), and was diluted by 5% (5% RBC suspension).
# The washed blood was diluted by 5% in water for injection (solution of complete hemolysis), and was used as the indication of optical density for complete hemolysis.
# The compounds of the present invention solution in DMSO (several and doubling dilutions starting from 2.5 mmol/L, 4 mmol/L, 5 mmol/L, or 10 mmol/L), DMSO as the negative control, and Amphotericin B as the positive control were used, and each 5 μL of these was added in to a well of V-form 96 well type microplate.
# Finally, the maximum concentration of the compounds of the present invention solution in DMSO was 50 μmol/L, 80 μmol/L, 100 μmol/L, or 200 μmol/L by adding 245 μL of the medium or 5% RBC suspension into the well.
# Two hundred fifty μL of the solution of complete hemolysis was added into another well and the microplate was incubated at 37° C. in 5% of CO2 concentration for an hour.
# After the incubation, each 100 μL of supernatants in wells was collected by centrifugation of the microplate at 300×g for 5 minutes and was located on a well of flat-form 96 well type microplate. An absorbance of each supernatant was measured at wavelength of 540 nm.
# Percent hemolysis was calculated by using the followed equation. The required concentration to 50% of hemolysis (IC50) was calculated based on the percent hemolysis. […] Hemolysis (%)=(CR−VM)×100÷(VL−VR) Where:
# CR: Absorbance of 5% RBC suspension incubated with the compounds of the present invention solution in DMSO
# VM: Absorbance of medium incubated with the compounds of the present invention solution in DMSO
# VL: Absorbance of solution of complete hemolysis
# VR: Absorbance of 5% RBC suspension incubated with DMSO
# The “hemolysis method” in the table means any tests the upper concentration of above IC50 are 50 μmol/L, 80 μmol/L, 100 μmol/L or 200 μmol/L. The “>50”, “>80”, “>100” or “>200” in the table means above IC50 value exceeded the each upper concentration.
# [5] = Aspergillus flavus, read-out: MIC
# [6] = Aspergillus fumigatus, read-out: MIC
# [7] = Candida albicans, read-out: MIC
# [8] = hemolysis method 50 (upper concentration 50 μmol/L), 5% RBC suspension, 37° C., one hour
# [9] = Erythrocyte, 1 h, hemolysis method 50 (upper concentration 50 μmol/L), 5% RBC suspension, 37° C., one hour
# [10] = hemolysis method 100 (upper concentration 100 μmol/L), 5% RBC suspension, 37° C., one hour
smiles,measurement,setting,value
C[C@@H]1[C@H](O)[C@@H](C)/C=C/C=C/C=C/C=C/C=C/C=C/C=C/[C@H](O[C@@H]2O[C@H](C)[C@@H](O)[C@H](N)[C@@H]2O)C[C@@H]2O[C@](O)(C[C@@H](O)C[C@@H](O)[C@H](O)CC[C@@H](O)C[C@@H](O)CC(=O)O[C@H]1C)C[C@H](O)[C@H]2NC(N)=O [I-36],MIC,[1]; [5],1 µg/mL
same,MIC,[2]; [6],1 µg/mL
same,MIC,[3]; [7],0.25 µg/mL
CONC(=O)N[C@H]1[C@@H]2C[C@@H](O[C@@H]3O[C@H](C)[C@@H](O)[C@H](N)[C@@H]3O)/C=C/C=C/C=C/C=C/C=C/C=C/C=C/[C@H](C)[C@@H](O)[C@@H](C)[C@H](C)OC(=O)C[C@H](O)C[C@H](O)CC[C@@H](O)[C@H](O)C[C@H](O)C[C@](O)(C[C@@H]1O)O2 [I-59],MIC,[1]; [5],1 µg/mL
same,MIC,[2]; [6],1 µg/mL
same,MIC,[3]; [7],0.25 µg/mL
C[C@@H]1[C@H](O)[C@@H](C)/C=C/C=C/C=C/C=C/C=C/C=C/C=C/[C@H](O[C@@H]2O[C@H](C)[C@@H](O)[C@H](N)[C@@H]2O)C[C@@H]2O[C@](O)(C[C@@H](O)C[C@@H](O)[C@H](O)CC[C@@H](O)C[C@@H](O)CC(=O)O[C@H]1C)C[C@H](O)[C@H]2NC(=O)NCCNC(=N)N [I-67],MIC,[1],1 µg/mL
same,MIC,[2],1 µg/mL
same,MIC,[3],0.25 µg/mL
C[C@@H]1[C@H](O)[C@@H](C)/C=C/C=C/C=C/C=C/C=C/C=C/C=C/[C@H](O[C@@H]2O[C@H](C)[C@@H](O)[C@H](N)[C@@H]2O)C[C@@H]2O[C@](O)(C[C@@H](O)C[C@@H](O)[C@H](O)CC[C@@H](O)C[C@@H](O)CC(=O)O[C@H]1C)C[C@H](O)[C@H]2NC(=O)NCC(N)=O [I-90],MIC,[1],0.5 µg/mL
same,MIC,[2],0.5 µg/mL
same,MIC,[3],0.25 µg/mL
C[C@@H]1[C@H](O)[C@@H](C)/C=C/C=C/C=C/C=C/C=C/C=C/C=C/[C@H](O[C@@H]2O[C@H](C)[C@@H](O)[C@H](N)[C@@H]2O)C[C@@H]2O[C@](O)(C[C@@H](O)C[C@@H](O)[C@H](O)CC[C@@H](O)C[C@@H](O)CC(=O)O[C@H]1C)C[C@H](O)[C@H]2NC(=O)NC[C@@H](O)CO [I-119],MIC,[1],0.5 µg/mL
same,MIC,[2],1 µg/mL
same,MIC,[3],0.25 µg/mL
C[C@@H]1[C@H](O)[C@@H](C)/C=C/C=C/C=C/C=C/C=C/C=C/C=C/[C@H](O[C@@H]2O[C@H](C)[C@@H](O)[C@H](N)[C@@H]2O)C[C@@H]2O[C@](O)(C[C@@H](O)C[C@@H](O)[C@H](O)CC[C@@H](O)C[C@@H](O)CC(=O)O[C@H]1C)C[C@H](O)[C@H]2NC(=O)NCC(=O)NC(CO)CO [I-155],MIC,[1],0.5 µg/mL
same,MIC,[2],1 µg/mL
same,MIC,[3],0.5 µg/mL
C[C@@H]1[C@H](O)[C@@H](C)/C=C/C=C/C=C/C=C/C=C/C=C/C=C/[C@H](O[C@@H]2O[C@H](C)[C@@H](O)[C@H](N)[C@@H]2O)C[C@@H]2O[C@](O)(C[C@@H](O)C[C@@H](O)[C@H](O)CC[C@@H](O)C[C@@H](O)CC(=O)O[C@H]1C)C[C@H](O)[C@H]2NC(=O)NCC(=O)NCC#N [I-157],MIC,[1],0.5 µg/mL
same,MIC,[2],1 µg/mL
same,MIC,[3],0.5 µg/mL
C[C@@H]1[C@H](O)[C@@H](C)/C=C/C=C/C=C/C=C/C=C/C=C/C=C/[C@H](O[C@@H]2O[C@H](C)[C@@H](O)[C@H](N)[C@@H]2O)C[C@@H]2O[C@](O)(C[C@@H](O)C[C@@H](O)[C@H](O)CC[C@@H](O)C[C@@H](O)CC(=O)O[C@H]1C)C[C@H](O)[C@H]2NC(=O)NC(C(=O)O)[C@H](C)O (stereo partly shown) [I-291],pIC50,[4]; [8],< 4.30
C[C@@H]1[C@H](O)[C@@H](C)/C=C/C=C/C=C/C=C/C=C/C=C/C=C/[C@H](O[C@@H]2O[C@H](C)[C@@H](O)[C@H](N)[C@@H]2O)C[C@@H]2O[C@](O)(C[C@@H](O)C[C@@H](O)[C@H](O)CC[C@@H](O)C[C@@H](O)CC(=O)O[C@H]1C)C[C@H](O)[C@H]2NC(=O)N(O)C[C@@H](O)C(=O)O [I-295],pIC50,[4]; [8],< 4.30
C[C@@H]1[C@H](O)[C@@H](C)/C=C/C=C/C=C/C=C/C=C/C=C/C=C/[C@H](O[C@@H]2O[C@H](C)[C@@H](O)[C@H](N)[C@@H]2O)C[C@@H]2O[C@](O)(C[C@@H](O)C[C@@H](O)[C@H](O)CC[C@@H](O)C[C@@H](O)CC(=O)O[C@H]1C)C[C@H](O)[C@H]2NC(=O)N1CC(O[C@H]2OC(CO)[C@@H](O)[C@H](O)C2O)C1 (stereo partly shown) [I-303],pIC50,[4]; [9],< 4.30
CNC(=O)N[C@H]1[C@@H]2C[C@@H](O[C@@H]3O[C@H](C)[C@@H](O)[C@H](NCc4ccc(N(C)C)cc4)[C@@H]3O)/C=C/C=C/C=C/C=C/C=C/C=C/C=C/[C@H](C)[C@@H](O)[C@@H](C)[C@H](C)OC(=O)C[C@H](O)C[C@H](O)CC[C@@H](O)[C@H](O)C[C@H](O)C[C@](O)(C[C@@H]1O)O2 [I-314],pIC50,[4]; [10],< 4.10
C[C@@H]1[C@H](O)[C@@H](C)/C=C/C=C/C=C/C=C/C=C/C=C/C=C/[C@H](O[C@@H]2O[C@H](C)[C@@H](O)[C@H](NC(=O)CN(C)C)[C@@H]2O)C[C@@H]2O[C@](O)(C[C@@H](O)C[C@@H](O)[C@H](O)CC[C@@H](O)C[C@@H](O)CC(=O)O[C@H]1C)C[C@H](O)[C@H]2NC(=O)NCCN(C)C [I-327],pIC50,[4]; [10],< 4.30
C[C@@H]1[C@H](O)[C@@H](C)/C=C/C=C/C=C/C=C/C=C/C=C/C=C/[C@H](O[C@@H]2O[C@H](C)[C@@H](O)[C@H](NCc3cccnc3N)[C@@H]2O)C[C@@H]2O[C@](O)(C[C@@H](O)C[C@@H](O)[C@H](O)CC[C@@H](O)C[C@@H](O)CC(=O)O[C@H]1C)C[C@H](O)[C@H]2NC(=O)NCCN(C)C [I-328],pIC50,[4]; [10],< 4.30
C[C@@H]1[C@H](O)[C@@H](C)/C=C/C=C/C=C/C=C/C=C/C=C/C=C/[C@H](O[C@@H]2O[C@H](C)[C@@H](O)[C@H](NC[C@@]3(O)OC[C@@H](O)[C@H](O)[C@@H]3O)[C@@H]2O)C[C@@H]2O[C@](O)(C[C@@H](O)C[C@@H](O)[C@H](O)CC[C@@H](O)C[C@@H](O)CC(=O)O[C@H]1C)C[C@H](O)[C@H]2NC(=O)NC[C@H](O)CO [I-368],pIC50,[4]; [9],< 4.30
C[C@@H]1[C@H](O)[C@@H](C)/C=C/C=C/C=C/C=C/C=C/C=C/C=C/[C@H](O[C@@H]2O[C@H](C)[C@@H](O)[C@H](N)[C@@H]2O)C[C@@H]2O[C@](O)(C[C@@H](O)C[C@@H](O)[C@H](O)CC[C@@H](O)C[C@@H](O)CC(=O)O[C@H]1C)C[C@H](O)[C@H]2c1nc(-c2ccc(N(C)C)cc2)no1 [I-390],pIC50,"[4]; Erythrocyte, 1 h",< 4.30
C[C@@H]1[C@H](O)[C@@H](C)/C=C/C=C/C=C/C=C/C=C/C=C/C=C/[C@H](O[C@@H]2O[C@H](C)[C@@H](O)[C@H](N)[C@@H]2O)C[C@@H]2O[C@](O)(C[C@@H](O)C[C@@H](O)[C@H](O)CC[C@@H](O)C[C@@H](O)CC(=O)O[C@H]1C)C[C@H](O)[C@H]2c1nc(-c2ccccc2)no1 [I-391],pIC50,[4]; [9],< 4.30
C[C@@H]1[C@H](O)[C@@H](C)/C=C/C=C/C=C/C=C/C=C/C=C/C=C/[C@H](O[C@@H]2O[C@H](C)[C@@H](O)[C@H](N)[C@@H]2O)C[C@@H]2O[C@](O)(C[C@@H](O)C[C@@H](O)[C@H](O)CC[C@@H](O)C[C@@H](O)CC(=O)O[C@H]1C)C[C@H](O)[C@H]2c1nc(-c2ccncc2)no1 [I-392],pIC50,[4]; [9],< 4.30
